Data on 4 molecules can be found in ChEMBL document CHEMBL1144189, “Novel and potent oxazolidinone antibacterials featuring 3-indolylglyoxamide substituents” (Bioorg Med Chem Lett, 2008).

Structures are written as SMILES. Values after ≈ are worked out from the molar mass of the structure shown. Some results are limits rather than exact numbers.

One data set relates to Staphylococcus aureus. Kind of data set: Antibacterial activity against methicillin-susceptible Staphylococcus aureus DRCC 035. The class given is functional.
Details: not given
With `O=C(C(=O)N1CCN(c2ccc(N3C[C@H](CNC(=O)C4CC4)OC3=O)cc2F)CC1)c1c[nH]c2ccc(Br)cc12`, the MIC is 1 µg/mL (≈ 1.63 µM).

Take `COc1ccc2[nH]cc(C(=O)C(=O)N3CCN(c4ccc(N5C[C@H](CNC(C)=O)OC5=O)cc4F)CC3)c2c1`: the MIC is 2 µg/mL (≈ 3.72 µM).

With `CC(=S)NC[C@H]1CN(c2ccc(N3CCN(C(=O)C(=O)c4c[nH]c5ccc(Br)cc45)CC3)c(F)c2)C(=O)O1`, the MIC turned out to be 0.5 µg/mL (≈ 0.83 µM).

`CC(=O)NC[C@H]1CN(c2ccc(N3CCN(C(=O)C(=O)c4c[nH]c5ccc([N+](=O)[O-])cc45)CC3)c(F)c2)C(=O)O1`: the MIC was determined as 2 µg/mL (≈ 3.62 µM).

For a further data set, the system named is Staphylococcus aureus. Kind of data set: Antibacterial activity against methicillin-resistant Staphylococcus aureus DRCC 019. The class given is functional.
Details: not given
In the case of `O=C(C(=O)N1CCN(c2ccc(N3C[C@H](CNC(=O)C4CC4)OC3=O)cc2F)CC1)c1c[nH]c2ccc(Br)cc12`, the MIC was 2 µg/mL (≈ 3.27 µM).

On to `COc1ccc2[nH]cc(C(=O)C(=O)N3CCN(c4ccc(N5C[C@H](CNC(C)=O)OC5=O)cc4F)CC3)c2c1`, for which the MIC came to 1 µg/mL (≈ 1.86 µM).

In turn, `CC(=S)NC[C@H]1CN(c2ccc(N3CCN(C(=O)C(=O)c4c[nH]c5ccc(Br)cc45)CC3)c(F)c2)C(=O)O1` had an MIC of 0.25 µg/mL (≈ 0.415 µM).

`CC(=O)NC[C@H]1CN(c2ccc(N3CCN(C(=O)C(=O)c4c[nH]c5ccc([N+](=O)[O-])cc45)CC3)c(F)c2)C(=O)O1`: the MIC came to 1 µg/mL (≈ 1.81 µM).

The next data set relates to Staphylococcus aureus. Kind of data set: Antibacterial activity against linezolid-resistant Staphylococcus aureus DRCC 564. The class given is functional.
Details: not given
`O=C(C(=O)N1CCN(c2ccc(N3C[C@H](CNC(=O)C4CC4)OC3=O)cc2F)CC1)c1c[nH]c2ccc(Br)cc12` had an MIC of 8 µg/mL (≈ 13.1 µM).

For the molecule `CC(=S)NC[C@H]1CN(c2ccc(N3CCN(C(=O)C(=O)c4c[nH]c5ccc(Br)cc45)CC3)c(F)c2)C(=O)O1`, the MIC was found to be 2 µg/mL (≈ 3.32 µM).

For another data set, the system named is Enterococcus faecalis. Kind of data set: Antibacterial activity against vancomycin-susceptible Enterococcus faecalis DRCC 034.
Details: not given
In kind it is functional.
Regarding `O=C(C(=O)N1CCN(c2ccc(N3C[C@H](CNC(=O)C4CC4)OC3=O)cc2F)CC1)c1c[nH]c2ccc(Br)cc12`, the MIC amounted to 2 µg/mL (≈ 3.27 µM).

In the case of `COc1ccc2[nH]cc(C(=O)C(=O)N3CCN(c4ccc(N5C[C@H](CNC(C)=O)OC5=O)cc4F)CC3)c2c1`, the MIC came out at 1 µg/mL (≈ 1.86 µM).

In turn, `CC(=S)NC[C@H]1CN(c2ccc(N3CCN(C(=O)C(=O)c4c[nH]c5ccc(Br)cc45)CC3)c(F)c2)C(=O)O1` returned an MIC of 0.5 µg/mL (≈ 0.83 µM).

`CC(=O)NC[C@H]1CN(c2ccc(N3CCN(C(=O)C(=O)c4c[nH]c5ccc([N+](=O)[O-])cc45)CC3)c(F)c2)C(=O)O1` returned an MIC of 1 µg/mL (≈ 1.81 µM).

In the next data set the test system is Enterococcus faecalis. Kind of data set: Antibacterial activity against vancomycin-resistant Enterococcus faecalis DRCC 153.
Details: not given
In kind it is functional.
`O=C(C(=O)N1CCN(c2ccc(N3C[C@H](CNC(=O)C4CC4)OC3=O)cc2F)CC1)c1c[nH]c2ccc(Br)cc12` came in with an MIC of 1 µg/mL (≈ 1.63 µM).

The molecule `COc1ccc2[nH]cc(C(=O)C(=O)N3CCN(c4ccc(N5C[C@H](CNC(C)=O)OC5=O)cc4F)CC3)c2c1` showed an MIC of 0.5 µg/mL (≈ 0.93 µM).

For `CC(=S)NC[C@H]1CN(c2ccc(N3CCN(C(=O)C(=O)c4c[nH]c5ccc(Br)cc45)CC3)c(F)c2)C(=O)O1`, the MIC was 0.12 µg/mL (≈ 0.199 µM).

`CC(=O)NC[C@H]1CN(c2ccc(N3CCN(C(=O)C(=O)c4c[nH]c5ccc([N+](=O)[O-])cc45)CC3)c(F)c2)C(=O)O1` came in with an MIC of 1 µg/mL (≈ 1.81 µM).

The subject of a further data set is Enterococcus faecium. Kind of data set: Antibacterial activity against vancomycin-resistant Enterococcus faecium DRCC 154. In kind it is functional.
Details: not given
For `O=C(C(=O)N1CCN(c2ccc(N3C[C@H](CNC(=O)C4CC4)OC3=O)cc2F)CC1)c1c[nH]c2ccc(Br)cc12`, the MIC came to 2 µg/mL (≈ 3.27 µM).

In turn, `COc1ccc2[nH]cc(C(=O)C(=O)N3CCN(c4ccc(N5C[C@H](CNC(C)=O)OC5=O)cc4F)CC3)c2c1` registered an MIC of 1 µg/mL (≈ 1.86 µM).

In turn, `CC(=S)NC[C@H]1CN(c2ccc(N3CCN(C(=O)C(=O)c4c[nH]c5ccc(Br)cc45)CC3)c(F)c2)C(=O)O1` showed an MIC of 0.25 µg/mL (≈ 0.415 µM).

`CC(=O)NC[C@H]1CN(c2ccc(N3CCN(C(=O)C(=O)c4c[nH]c5ccc([N+](=O)[O-])cc45)CC3)c(F)c2)C(=O)O1` gave an MIC of 2 µg/mL (≈ 3.62 µM).

The test system of the next data set is Enterococcus faecalis. Kind of data set: Antibacterial activity against linezolid-resistant Enterococcus faecalis DRCC 632. The class given is functional.
Details: not given
The molecule `O=C(C(=O)N1CCN(c2ccc(N3C[C@H](CNC(=O)C4CC4)OC3=O)cc2F)CC1)c1c[nH]c2ccc(Br)cc12` yielded an MIC of 8 µg/mL (≈ 13.1 µM).

`CC(=S)NC[C@H]1CN(c2ccc(N3CCN(C(=O)C(=O)c4c[nH]c5ccc(Br)cc45)CC3)c(F)c2)C(=O)O1` returned an MIC of 2 µg/mL (≈ 3.32 µM).

The next data set has as its system Moraxella catarrhalis. The experiment in a line: Antibacterial activity against beta-lactamase deficient Moraxella catarrhalis DRCC 300. The class given is functional.
Details: not given
In the case of `O=C(C(=O)N1CCN(c2ccc(N3C[C@H](CNC(=O)C4CC4)OC3=O)cc2F)CC1)c1c[nH]c2ccc(Br)cc12`, the MIC was 4 µg/mL (≈ 6.53 µM).

`CC(=S)NC[C@H]1CN(c2ccc(N3CCN(C(=O)C(=O)c4c[nH]c5ccc(Br)cc45)CC3)c(F)c2)C(=O)O1` returned an MIC of 2 µg/mL (≈ 3.32 µM).

The test system of a further data set is Haemophilus influenzae. Kind of data set: Antibacterial activity against beta-lactamase deficient Haemophilus influenzae DRCC 433.
Details: not given
The class given is functional.
`O=C(C(=O)N1CCN(c2ccc(N3C[C@H](CNC(=O)C4CC4)OC3=O)cc2F)CC1)c1c[nH]c2ccc(Br)cc12` had an MIC greater than 32 µg/mL.

`COc1ccc2[nH]cc(C(=O)C(=O)N3CCN(c4ccc(N5C[C@H](CNC(C)=O)OC5=O)cc4F)CC3)c2c1` yielded an MIC greater than 32 µg/mL.

Turning to `CC(=S)NC[C@H]1CN(c2ccc(N3CCN(C(=O)C(=O)c4c[nH]c5ccc(Br)cc45)CC3)c(F)c2)C(=O)O1`, the MIC is greater than 32 µg/mL.

`CC(=O)NC[C@H]1CN(c2ccc(N3CCN(C(=O)C(=O)c4c[nH]c5ccc([N+](=O)[O-])cc45)CC3)c(F)c2)C(=O)O1` returned an MIC greater than 32 µg/mL.

The subject of another data set is Staphylococcus aureus. The experiment in a line: Antibacterial activity against Staphylococcus aureus DRCC 035 infected mouse systemic infection model administered orally for 1 day at 1 and 5 hrs post-infection and measured daily for 5 days. The note with it: po. In kind it is functional.
For the molecule `O=C(C(=O)N1CCN(c2ccc(N3C[C@H](CNC(=O)C4CC4)OC3=O)cc2F)CC1)c1c[nH]c2ccc(Br)cc12`, the ED50 (usually the midpoint of the dose-response relation) came to 18.9 mg/kg.

Regarding `CC(=S)NC[C@H]1CN(c2ccc(N3CCN(C(=O)C(=O)c4c[nH]c5ccc(Br)cc45)CC3)c(F)c2)C(=O)O1`, the median effective dose (ED50) is greater than 30 mg/kg.

Test system in the next data set: not listed separately
The experiment in a line: AUC (0 to t) in Swiss albino mouse at 10 mg/kg, po. The class given is ADME, organism-based. Also noted: dose 10 mg/kg, route oral. Conditions: plasma.
Turning to `O=C(C(=O)N1CCN(c2ccc(N3C[C@H](CNC(=O)C4CC4)OC3=O)cc2F)CC1)c1c[nH]c2ccc(Br)cc12`, the area under the curve AUC(0-t) (in general, the area under the concentration-time curve up to a stated or last time point) came out at 1260 ng·h/mL.

Test system in the next data set: not listed separately
The experiment in a line: Tmax in Swiss albino mouse at 10 mg/kg, po. The class given is ADME, organism-based. Also noted: dose 10 mg/kg, route oral. The note with it: in vivo.
In the case of `O=C(C(=O)N1CCN(c2ccc(N3C[C@H](CNC(=O)C4CC4)OC3=O)cc2F)CC1)c1c[nH]c2ccc(Br)cc12`, the Tmax – broadly, the time from dosing to the highest level – is 2 h.

Test system in another data set: not listed separately
Kind of data set: Cmax in Swiss albino mouse at 10 mg/kg, po. In kind it is ADME, organism-based. The note with it: in vivo. Also noted: dose 10 mg/kg, route oral.
Take `O=C(C(=O)N1CCN(c2ccc(N3C[C@H](CNC(=O)C4CC4)OC3=O)cc2F)CC1)c1c[nH]c2ccc(Br)cc12`: the peak level (Cmax) was 300 ng/mL.

Test system in the next data set: not listed separately
The experiment in a line: Half life in Swiss albino mouse at 10 mg/kg, po. The class given is ADME, organism-based. The arrangement: dose 10 mg/kg, route oral. Conditions: in vivo.
In the case of `O=C(C(=O)N1CCN(c2ccc(N3C[C@H](CNC(=O)C4CC4)OC3=O)cc2F)CC1)c1c[nH]c2ccc(Br)cc12`, the half-life (commonly the time in which the quantity being followed falls by half) is 1.13 h.

Test system in a further data set: not listed separately
Kind of data set: Drug elimination in Swiss albino mouse at 10 mg/kg, po. In kind it is ADME, organism-based. The arrangement: dose 10 mg/kg, route oral. The note with it: in vivo.
In turn, `O=C(C(=O)N1CCN(c2ccc(N3C[C@H](CNC(=O)C4CC4)OC3=O)cc2F)CC1)c1c[nH]c2ccc(Br)cc12` showed a k el of 0.000169 s⁻¹.
